Measurements taken from patent US20240254119A1 (THIRD HARMONIC BIO, INC., priority 2022, published 2024).

Molecular target: T1, wtKIT (Homo sapiens, UniProt P10721)
T1 construct: 1888289AM in the reaction mixtures
Assay: HTRF biochemical assay, wtKIT (phosphorylation of a peptide substrate)
Settings: Table 4
Protocol: Exemplary compounds were tested for ability to inhibit the phosphorylation of a peptide substrate by the tyrosine kinase wt KIT, PDGFRα, or CSF-1R. Assay procedures and results are described below.
Enzyme, substrate, and cofactors (ATP and Mn^2+) are combined in a well of a microtiter plate and incubated for 3 hours at 25° C. At the end of the incubation, the reaction is quenched by the addition of an EDTA-containing buffer.
The substrate used in the CSF-1R and PDGFRα assay is FAM-[…]-CONH2 (FAM is carboxyfluorescein). Peptide should be >95% purity. The substrate for the KIT assay is FAM-[…]-NH2.
• 1. To a well of a 384-wellplate add 5 μL of 2× enzyme buffer (or control). • 2. Add 100 nL of 100× compound. Enzyme and compound may be pre-incubated at this time if desired. • 3. Add 5 μL of 2× substrate buffer. • 4. Incubate plate at 25° C. for 3 hours. • 5. Add 10 uL of anti-phosphotyrosine antibody buffer. • 6. Read plate in BioTek Synergy Reader. Reaction Conditions for wtKIT Assay
• 100 mM HEPES, pH 7.5 0.1% BSA • 0.01% Triton x-100 • 1 mM DTT • 10 mM MnCl2 • 10 μM Sodium Orthovanadate • 10 μM Beta-Glycerophosphate • 400 μM ATP • 1% DMSO (from compound) • 1 μM FAM-[…]-CONH2, 5.0 nM wtKIT Enzyme (1888289AM)* • *Specific activity may vary from lot to lot. Enzyme concentration may need to be adjusted to yield 10-20% conversion of substrate to product.

T1 sequence (P10721 26-976): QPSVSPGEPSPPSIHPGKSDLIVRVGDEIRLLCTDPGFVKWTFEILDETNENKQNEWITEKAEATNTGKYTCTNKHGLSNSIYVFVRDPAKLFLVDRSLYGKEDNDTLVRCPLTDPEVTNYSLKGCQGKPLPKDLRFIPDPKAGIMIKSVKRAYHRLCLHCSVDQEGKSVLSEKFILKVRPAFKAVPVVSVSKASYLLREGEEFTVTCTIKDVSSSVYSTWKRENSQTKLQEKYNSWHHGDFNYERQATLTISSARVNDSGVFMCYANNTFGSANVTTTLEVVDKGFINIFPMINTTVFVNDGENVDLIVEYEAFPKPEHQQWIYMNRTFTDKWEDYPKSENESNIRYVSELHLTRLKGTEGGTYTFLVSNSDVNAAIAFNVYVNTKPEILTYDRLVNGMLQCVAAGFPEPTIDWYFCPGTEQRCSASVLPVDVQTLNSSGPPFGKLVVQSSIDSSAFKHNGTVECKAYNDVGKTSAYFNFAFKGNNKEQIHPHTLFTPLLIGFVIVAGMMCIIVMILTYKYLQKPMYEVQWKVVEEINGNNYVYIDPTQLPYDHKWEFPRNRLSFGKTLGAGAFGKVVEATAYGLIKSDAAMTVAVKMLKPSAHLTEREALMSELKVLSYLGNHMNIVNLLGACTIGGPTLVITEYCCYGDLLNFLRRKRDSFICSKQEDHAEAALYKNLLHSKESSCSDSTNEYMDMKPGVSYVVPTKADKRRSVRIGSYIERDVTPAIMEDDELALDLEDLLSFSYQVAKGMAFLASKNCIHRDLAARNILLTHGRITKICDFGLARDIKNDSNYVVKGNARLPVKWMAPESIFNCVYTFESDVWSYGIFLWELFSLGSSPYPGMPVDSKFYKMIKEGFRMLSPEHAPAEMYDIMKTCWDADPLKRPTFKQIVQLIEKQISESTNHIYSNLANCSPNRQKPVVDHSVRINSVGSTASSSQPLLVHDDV

Structure (SMILES)	IC50 [nM]
Cc1ccc(-c2noc([C@H]3C[C@@H]3F)n2)cc1NC(=O)c1cnc2cc(C(C)OCCO)ccn12 (relative stereo) [Compound I-451, N-[5-[5-[(1R,2S)-2-fluorocyclopropyl]-1,2,4-oxadiazol-3-yl]-2-methyl-phenyl]-7-[(1R*)-1-(2-hydroxyethoxy)ethyl]imidazo[1,2-a]pyridine-3-carboxamide]	≤ 50
Cc1ccc(-c2noc(C3CC3F)n2)cc1NC(=O)c1cnc2cc(C(C)OCCO)ccn12 (single isomer, unassigned) [Compound I-450, N-[5-[5-[(1R,2S)-2-fluorocyclopropyl]-1,2,4-]-7-[(1S*)-1-(2-hydroxyethoxadiazol-3-yl]-2-methyl-phenyloxy)ethyl]imidazo[1,2-a]pyridine-3-carboxamide]	≤ 50
Cc1ccc(-c2noc([C@H]3C[C@@H]3F)n2)cc1NC(=O)c1cnc2cc(COCC(C)O)ccn12 (single isomer, unassigned) [Compound I-468, N-[5-[5-[(1R,2S)-2-fluorocyclopropyl]-1,2,4-oxadiazol-3-yl]-2-methyl-phenyl]-7-[[(2R*)-2-hydroxypropoxy]methyl]imidazo[1,2-a]pyridine-3-carboxamide]	≤ 50
Cc1ccc(-c2noc([C@H]3C[C@@H]3F)n2)cc1NC(=O)c1cnc2cc(COCC(C)O)ccn12 (single isomer, unassigned) [Compound I-469, N-[5-[5-[(1R,2S)-2-fluorocyclopropyl]-1,2,4-oxadiazol-3-yl]-2-methyl-phenyl]-7-[[(2S*)-2-hydroxypropoxy]methyl]imidazo[1,2-a]pyridine-3-carboxamide]	≤ 50
Cc1ccc(-c2noc([C@H]3C[C@@H]3F)n2)cc1NC(=O)c1cnc2cc3c(cn12)COC3C (single isomer, unassigned) [Compound I-470, (6S*)—N-[5-[5-[(1R,2S)-2-fluorocyclopropyl]-1,2,4-oxadiazol-3-yl]-2-methyl-phenyl]-6-methyl-5-oxa-1,10-diazatricyclo[7.3.0.03,7]dodeca-2,7,9,11-tetraene-12-carboxamide]	≤ 50
Cc1ccc(-c2noc([C@H]3C[C@@H]3F)n2)cc1NC(=O)c1cnc2cc3c(cn12)COC3C (single isomer, unassigned) [Compound I-471, (6R*)—N-[5-[5-[(1R,2S)-2-fluorocyclopropyl]-1,2,4-oxadiazol-3-yl]-2-methyl-phenyl]-6-methyl-5-oxa-1,10-diazatricyclo[7.3.0.03,7]dodeca-2,7,9,11-tetraene-12-carboxamide]	≤ 50
Cc1ccc(-c2noc([C@H]3C[C@@H]3F)n2)cc1NC(=O)c1cnc2cc3c(cn12)C(C)OC3 (single isomer, unassigned) [Compound I-482, (4S*)—N-[5-[5-[(1R,2S)-2-fluorocyclopropyl]-1,2,4-oxadiazol-3-yl]-2-methyl-phenyl]-4-methyl-5-oxa-1,10-diazatricyclo[7.3.0.0^3,7]dodeca-2,7,9,11-tetraene-12-carboxamide]	≤ 50

Results, then the compound that gave them:

IC50 [nM]	Structure (SMILES)
≤ 50	Cc1ccc(-c2noc([C@H]3C[C@@H]3F)n2)cc1NC(=O)c1cnc2cc3c(cn12)C(C)OC3 (single isomer, unassigned) [Compound I-483, (4R*)—N-[5-[5-[(1R,2S)-2-fluorocyclopropyl]-1,2,4-oxadiazol-3-yl]-2-methyl-phenyl]-4-methyl-5-oxa-1,10-diazatricyclo[7.3.0.0^3,7]dodeca-2,7,9,11-tetraene-12-carboxamide]
50 to 500	Cc1ccc(-c2noc(CC(O)C(F)F)n2)cc1NC(=O)c1cnc2cc(COCCO)ccn12 (single isomer, unassigned) [Compound I-511]
≤ 50	Cc1ccn2c(C(=O)Nc3cc(-c4noc(CCC(C)(O)C(F)(F)F)n4)ccc3C)cnc2c1 (single isomer, unassigned) [Compound I-515]
≤ 50	Cc1ccn2c(C(=O)Nc3cc(-c4noc(CCC(C)(O)C(F)(F)F)n4)ccc3C)cnc2c1 (single isomer, unassigned) [Compound I-516]
50 to 500	Cc1nc(-c2ccc(C)c(NC(=O)c3cnc4cc(OC5CCOC5)ccn34)c2)no1 (single isomer, unassigned) [Compound I-748]
